Experimental findings from US10588972B2, “Phthalocyanine probes and uses thereof” (LI-COR, INC., priority 2014, dated 2020) are described below.

Molecules are shown by their SMILES.

What all share (assay type): cell-based
One test concerns A431 cells. Put plainly: VB-48 assay: vitality, viability and necrosis of treatments 1-10 (Table 3). How it is done:
Briefly, A431 cells were labeled with respective probes for specific treatments (listed below); cells were rinsed and evaluated for labeling. The test include the following treatments: […], treatments 3-4 of EGF-IRDye® 700DX at 0.5 μM and radiation, treatments 5-6 of IRDye® 700DX NHSe at 5 μM and radiation, treatments 7-8 of panitumumab-IRDye® 700DX at about 0.1 μM and radiation, treatment 9 of a negative control with no probe and no irradiation, and treatment 10 of RGD-IRDye® 700DX and no irradiation. The probes were incubated for about 10 minutes and with a longer period of about 20 minutes for the RGD probe. The cells were monitored with microscopy and morphology was examination 24 hours post treatment.
Low binding was expected for the RGD probe due to the low level of integrin receptors on A431 cells. […] By 3 hours post-irradiation all treatments except RGD (Treatment 1) show significant cytotoxicity. Vitality, viability and necrosis assays such as a VB-48 assay and JC-1 assay were performed.

Test [1] deals with HTB-186 cells. Put plainly: Caspase 3/7 assay (Example 10, Table 8). To be noted: 32 J/cm^2, probe about 5 hours, 20 hours post irradiation; 700DX-RGD and 700DX-EGF 500 nM. How it is done:
(§1) This example illustrates the ability of IRDye® 700DX small molecule conjugates to induce apoptosis in cells, e.g., cancer cells. In this study HTB-186 cells (a desmoplastic cerebellar medulloblastoma cell line) were treated with IRDye® 700DX small molecule conjugates (IRDye® 700DX labeled chlorotoxin, anti-EGFR Affibody®, RGD peptide and EGF ligand). Apoptosis was measured by evaluating caspase 3/7 activity and mitochondrial membrane potential. […]
The caspase 3/7 assay was used to measure caspase 3/7 activity in the cells from the treatments listed above. […] Upon activation, the caspases cleave the substrate, and in turn, a fluorescence signal is emitted. […] The fluorescence can be detected by, for example, flow cytometry, fluorescence microscopy, and fluorescence-based image cytometry.
(§2) To determine whether the treated cells are undergoing apoptosis, a caspase 3/7 assay and mitochondrial potential assay were performed. […] Table 8 below provides cells number, % viability, JC-1% shift, and % late apoptotic and dead cells as determined by caspase 3/7 assay.

Test [2] concerns HTB-186 cells. In words: JC-1 mitochondrial membrane potential assay (Example 10, Table 8). To be noted: 32 J/cm^2, probe about 5 hours, 20 hours post irradiation; 700DX-RGD and 700DX-EGF 500 nM. As for the experimental part: as §1
In this study a mitochondrial membrane potential assay was performed on cells from treatments 1-8 to determine whether the treated cells underwent apoptosis. […] As JC-1 dye accumulated in mitochondria, its fluorescence emission shifts from green (about 529 nm) to red (about 590 nm). The presence of red fluorescence due to JC-1 aggregate formation corresponds to regions of high mitochondrial polarization. Depolarized mitochondria are indicated by green fluorescence of the JC-1 monomers. A detectable decrease in the red/green fluorescence intensity ratio indicates mitochondrial depolarization, and thus, apoptosis. In a membrane potential assay, cells are incubated with the JC-1 dye and fluorescence is detected by, for example, flow cytometry, fluorescence microscopy, and fluorescence-based image cytometry. […]

Test [3] has as its system HTB-186 cells. Put plainly: Viability, cell number and microscopy morphology at 20 h post irradiation (Example 10). As for the experimental part:
This example illustrates the ability of IRDye® 700DX small molecule conjugates to induce apoptosis in cells, e.g., cancer cells. In this study HTB-186 cells (a desmoplastic cerebellar medulloblastoma cell line) were treated with IRDye® 700DX small molecule conjugates (IRDye® 700DX labeled chlorotoxin, anti-EGFR Affibody®, RGD peptide and EGF ligand). Apoptosis was measured by evaluating caspase 3/7 activity and mitochondrial membrane potential. Apoptosis can be characterized by a variety of cell morphological and biochemical changes including membrane blebbing, cell shrinkage, alteration of membrane asymmetry and permeability, and/or condensation of chromatin and nucleus (Coleman et al., Nat Cell Biol, 2001, 3(4):339-45, Bortner and Cidlowski, Biochem Pharmacol, 1998, 56(12):1549-59; van Engeland et al., Experimental Cell Research, 1997, 235:421-430).
Microscopy images of cells in petri-dishes were captured at 20 h post irradiation. The images were captured in DIC and 700 nm to visualize the probe, and composite images were generated (DIC+700 nm) to visualize the overlay.
as §2

Setting [4] is: irradiated (I) 32 J/cm^2, RGD 0.5 μM, EGF 0.5 μM, NHSe 5 μM, Pan ~0.1 μM.
[5] abbreviates: no irradiation (NI), RGD-700DX 0.5 μM.

Take `C[Si](C)(CCC[N+](CCCS(=O)(=O)O)(CCCS(=O)(=O)O)CCCS(=O)(=O)O)O[Si-2]123(O[Si](C)(C)CCC[N+](CCCS(=O)(=O)O)(CCCS(=O)(=O)O)CCCS(=O)(=O)O)n4c5c6ccccc6c4N=C4c6cccc(OCCCOC(=O)NCCCCCC(=O)NCCCC[C@@H]7NC(=O)[C@@H](Cc8ccccc8)NC(=O)[C@H](CC(=O)O)NC(=O)CNC(=O)[C@H](CCCNC(=N)N)NC7=O)c6C(=[N+]41)N=c1c4ccccc4c(n12)=NC1=[N+]3C(=N5)c2ccccc21` [RGD-700DX]: in the test on A431 cells (setting [4]), the “% Healthy” value stood at 91.6%, the “% Necrotic” value came out at 7%, the Cells/mL was 6.6 × 10^5 Cells/mL and the “Low % Vitality” value is given as 2%. In addition, in the test with A431 cells (setting [5]), the “% Healthy” value is listed as 90.8%, the “% Necrotic” value is listed as 5%, the Cells/mL was 5.8 × 10^5 Cells/mL and the “Low % Vitality” value came to 4%. Also, the “Caspase 3 % late apoptotic + dead cells” value in the test on HTB-186 cells [1] stood at 57%. For the same compound, the JC-1 % shift in the test on HTB-186 cells [2] is given as 44%. Also, the cell morphology result in the test on HTB-186 cells [3] (32 J/cm^2, 20 h post irradiation) is “appeared rounded and smaller”. The “Cell #” value with HTB-186 cells [3] (32 J/cm^2, probe about 5 hours, 20 hours post irradiation, 700DX-RGD and 700DX-EGF 500 nM) was found to be 0.6E6.
